In patent US11117947B2, “Double-acylated GLP-1 derivatives” (Novo Nordisk A/S, priority 2011, dated 2021):
Numbered stars: 1 amine (or outer) side, 2 acyl side, 3 side chain; on linkers, the order of the positions; unused ones are H or OH. Side chains are listed from the residue outwards. Peptide text beside a SMILES is read from it. * marks the point of attachment. Decanoyl(10-(4-HOOC-PhO)) = O=C(O)c1ccc(OCCCCCCCCCC(=O)*)cc1; γGlu = O=C(O)[C@H](CCC(=O)[*:2])N[*:1]; AEEA = NCCOCCOCC(=O)O

Test: Estimate of oral bioavailability: gut injection in rat (caprate), exposure in plasma
Type: in vivo
Details: injection in jejunum, 1000 uM in 55 mg/ml sodium caprate, plasma concentration (pM) at 30 min divided by dosing solution concentration (μM), mean n=4
Experimental: The GLP-1 derivatives were tested in a concentration of 1000 uM in a solution of 55 mg/ml sodium caprate.
Male Sprague Dawley rats with a body weight upon arrival of approximately 240 g were obtained from Taconic (Denmark) and assigned to the different treatments by simple randomisation, 4 rats per group.
The GLP-1 derivatives were administered in the jejunum either in the proximal part (10 cm distal for the duodenum) or in the mid-intestine (50 cm proximal for the cecum). A PE50-catheter, 10 cm long was inserted into the jejunum, forwarded at least 1.5 cm into the jejunum, and secured before dosing by ligature around the gut and the catheter with 3/0 suture distal to tip to prevent leak or catheter displacement. Catheter was placed without syringe and needle and 2 ml saline was administered into abdomen before closing the incision with wound clips.
100 μl of the respective GLP-1 derivative was injected into the jejunal lumen through the catheter with a 1 ml syringe. Subsequently, 200 μl of air was pushed into the jejunal lumen with another syringe to “flush” the catheter. This syringe was leaved connected to the catheter to prevent flow back into the catheter.
Blood samples (200 ul) were collected at desired intervals (usually at times 0, 10, 30, 60, 120 and 240 min) into EDTA tubes from the tail vein and centrifuged 5 minutes, 10000G, at 4° C. within 20 minutes. […] 12, p. 240-247. The donor beads were coated with streptavidin, while acceptor beads were conjugated with a monoclonal antibody recognising a mid-/C-terminal epitope of the peptide. Another monoclonal antibody, specific for the N-terminus, was biotinylated. The three reactants were combined with the analyte and formed a two-sited immuno-complex. Illumination of the complex released singlet oxygen atoms from the donor beads, which were channeled into the acceptor beads and triggered chemiluminescence which was measured in an Envision plate reader. The amount of light was proportional to the concentration of the compound.
After the blood sampling the rats were sacrificed under anaesthesia and the abdomen was opened to verify correct catheter placement.
The mean (n=4) plasma concentrations (pmol/l) were determined as a function of time.

CC[C@H](C)[C@H](NC(=O)[C@H](Cc1ccccc1)NC(=O)[C@H](CCCCNC(=O)COCCOCCNC(=O)COCCOCCNC(=O)CC[C@H](NC(=O)CCCCCCCCCOc1ccc(C(=O)O)cc1)C(=O)O)NC(=O)[C@H](CCCNC(=N)N)NC(=O)[C@@H](NC(=O)[C@H](C)NC(=O)[C@H](CCC(N)=O)NC(=O)[C@H](CCC(=O)O)NC(=O)[C@H](CCC(=O)O)NC(=O)[C@H](CC(C)C)NC(=O)[C@H](Cc1ccc(O)cc1)NC(=O)[C@H](CO)NC(=O)[C@H](CO)NC(=O)[C@@H](NC(=O)[C@H](CC(=O)O)NC(=O)[C@H](CO)NC(=O)[C@@H](NC(=O)[C@H](Cc1ccccc1)NC(=O)[C@@H](NC(=O)CNC(=O)[C@H](CCC(=O)O)NC(=O)[C@H](C)NC(=O)[C@@H](N)Cc1c[nH]cn1)[C@@H](C)O)[C@@H](C)O)C(C)C)C(C)C)C(=O)N[C@@H](C)C(=O)N[C@@H](Cc1c[nH]c2ccccc12)C(=O)N[C@@H](CC(C)C)C(=O)N[C@H](C(=O)N[C@@H](CCCNC(=N)N)C(=O)NCC(=O)N[C@@H](CCCNC(=N)N)C(=O)N[C@@H](CCCCNC(=O)COCCOCCNC(=O)COCCOCCNC(=O)CC[C@H](NC(=O)CCCCCCCCCOc1ccc(C(=O)O)cc1)C(=O)O)C(=O)O)C(C)C [Example 4, N^ε27-[2-[2-[2-[[2-[2-[2-[[(4S)-4-carboxy-4-[10-(4-carboxyphenoxy)decanoylamino]butanoyl]amino]ethoxy]ethoxy]acetyl]amino]ethoxy]ethoxy]acetyl], N^ε37-[2-[2-[2-[[2-[2-[2-[[(4S)-4-carboxy-4-[10-(4-carboxyphenoxy)decanoylamino]butanoyl]amino]ethoxy]ethoxy]acetyl]amino]ethoxy]ethoxy]acetyl]-[Glu^22,Val^25,Arg^26,Lys^27,Arg^34,Lys^37]-GLP-1-(7-37)-peptide] (H-HAEGTFTSDVSSYLEEQAVRK([AEEA-AEEA-γGlu-Decanoyl(10-(4-HOOC-PhO))])FIAWLVRGRK([AEEA-AEEA-γGlu-Decanoyl(10-(4-HOOC-PhO))])-OH; N-terminus and C-terminus assumed)
Dose-corrected exposure at 30 min: 39
